According to ChEMBL document CHEMBL1201862, “PubChem BioAssay data set” (2004):
Counter-ions that a name gives are not always drawn. The source made the active and inactive calls.

Tests used:
[1] = A High Throughput Confirmatory Assay used to Identify Novel Compounds that Inhibit Mycobacterium Tuberculosis in the absence of Glycerol.; assay type: functional
[2] = C. albicans growth with fluconazole, confirmation, fluorescence, retest (AID 2467); assay type: functional, cell-based
[3] = target: T1, Rac GTPase-activating protein 1 (Homo sapiens, UniProt Q9H0H5); assay: MgcRacGAP GTPase-activating activity inhibitors, confirmation, biochemical, ADP Hunter fluorescence, primary and confirmatory (AID 624330); assay type: functional
T1 sequence (Q9H0H5 whole entry): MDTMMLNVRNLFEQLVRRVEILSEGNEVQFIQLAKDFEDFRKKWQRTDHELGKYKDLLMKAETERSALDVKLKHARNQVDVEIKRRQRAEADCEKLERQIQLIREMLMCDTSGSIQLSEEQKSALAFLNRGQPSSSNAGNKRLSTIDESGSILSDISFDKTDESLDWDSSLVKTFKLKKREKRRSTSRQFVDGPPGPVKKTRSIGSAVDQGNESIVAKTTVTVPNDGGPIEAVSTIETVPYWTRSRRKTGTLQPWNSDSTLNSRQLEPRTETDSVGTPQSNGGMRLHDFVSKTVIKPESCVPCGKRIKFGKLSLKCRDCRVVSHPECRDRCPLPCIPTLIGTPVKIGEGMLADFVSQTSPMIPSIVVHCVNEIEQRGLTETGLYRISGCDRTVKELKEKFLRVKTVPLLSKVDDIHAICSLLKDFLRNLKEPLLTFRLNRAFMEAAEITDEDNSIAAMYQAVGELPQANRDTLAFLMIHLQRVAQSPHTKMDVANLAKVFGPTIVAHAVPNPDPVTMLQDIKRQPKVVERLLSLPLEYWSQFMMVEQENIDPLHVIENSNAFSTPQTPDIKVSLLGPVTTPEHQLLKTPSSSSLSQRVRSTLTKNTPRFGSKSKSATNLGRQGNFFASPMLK

[4] = NIH-3T3 fibroblast cytotoxicity, dose response, cytotoxicity control, cell-based, fluorescence, Alamar Blue, secondary assay (AID 2327); assay type: functional;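 further: NIH-3T3 mouse fibroblasts cultured with fluconazole at 8 µg/mL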
[5] = A cytotoxicity screen of small molecule inhibitors of the PhoP region in Salmonella typhi identified in the primary screen. [Related pubchem assays: 1850, 1864, 1985 ]; assay type: functional
[6] = microbe, parasite or virus in culture; assay type: functional; conditions: Mycobacterium tuberculosis
[7] = target: T2, Lysosomal acid glucosylceramidase (Homo sapiens, UniProt P04062); assay: Dose response cell-based high throughput screening assay to identify enhancers of beta-glucosidase activity. [Related pubchem assays: 784 ]; assay type: functional
T2 sequence (P04062 whole entry): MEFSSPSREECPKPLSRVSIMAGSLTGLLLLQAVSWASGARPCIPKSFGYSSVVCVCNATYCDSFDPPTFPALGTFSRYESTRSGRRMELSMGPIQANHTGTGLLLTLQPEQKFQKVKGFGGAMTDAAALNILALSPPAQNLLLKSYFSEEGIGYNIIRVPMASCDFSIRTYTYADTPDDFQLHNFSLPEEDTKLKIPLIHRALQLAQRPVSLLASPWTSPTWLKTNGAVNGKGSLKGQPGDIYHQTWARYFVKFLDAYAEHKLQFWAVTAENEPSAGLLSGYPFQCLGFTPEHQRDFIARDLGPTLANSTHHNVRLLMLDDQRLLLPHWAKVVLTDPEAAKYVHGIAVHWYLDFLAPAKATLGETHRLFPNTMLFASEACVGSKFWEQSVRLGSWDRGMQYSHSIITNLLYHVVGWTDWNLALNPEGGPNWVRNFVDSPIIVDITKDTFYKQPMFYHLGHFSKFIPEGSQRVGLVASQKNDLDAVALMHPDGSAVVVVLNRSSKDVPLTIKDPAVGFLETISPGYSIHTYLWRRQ

[8] = target: T3, Replicative DNA helicase DnaB (Mycobacterium tuberculosis, UniProt P9WMR3); assay: DnaB intein splicing inhibitors, dose response, biochemical, cell-free fluorescence (AID 449749); assay type: functional
T3 sequence (P9WMR3 whole entry): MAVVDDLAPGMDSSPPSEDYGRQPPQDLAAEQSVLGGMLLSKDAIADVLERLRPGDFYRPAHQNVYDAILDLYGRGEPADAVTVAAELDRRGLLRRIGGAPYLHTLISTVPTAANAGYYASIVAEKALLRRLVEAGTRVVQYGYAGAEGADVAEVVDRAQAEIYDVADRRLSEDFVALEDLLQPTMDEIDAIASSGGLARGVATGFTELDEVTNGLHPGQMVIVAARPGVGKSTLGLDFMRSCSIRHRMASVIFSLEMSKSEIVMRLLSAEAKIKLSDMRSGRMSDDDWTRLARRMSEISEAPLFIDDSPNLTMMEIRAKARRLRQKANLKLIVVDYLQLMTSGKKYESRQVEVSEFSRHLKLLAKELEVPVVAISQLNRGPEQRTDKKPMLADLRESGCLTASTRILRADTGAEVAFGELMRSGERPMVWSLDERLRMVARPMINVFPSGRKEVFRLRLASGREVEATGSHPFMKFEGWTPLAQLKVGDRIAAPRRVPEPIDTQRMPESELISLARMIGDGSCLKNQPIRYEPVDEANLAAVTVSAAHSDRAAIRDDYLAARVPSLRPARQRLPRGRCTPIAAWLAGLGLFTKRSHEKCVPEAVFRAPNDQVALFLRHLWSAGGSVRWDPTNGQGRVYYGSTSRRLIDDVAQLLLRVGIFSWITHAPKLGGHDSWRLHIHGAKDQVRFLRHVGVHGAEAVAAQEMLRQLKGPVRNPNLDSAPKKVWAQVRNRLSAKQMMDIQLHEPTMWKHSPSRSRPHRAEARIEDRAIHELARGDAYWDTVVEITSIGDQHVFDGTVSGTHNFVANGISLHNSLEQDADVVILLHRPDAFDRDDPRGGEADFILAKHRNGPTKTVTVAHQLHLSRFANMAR

Protein RecA = target: T4, Protein RecA (Mycobacterium tuberculosis, UniProt P9WHJ3); assay: Fluorescence Cell-Free Homogeneous Dose Retest to Identify Inhibitors of RecA-Intein Splicing Activity. [Related pubchem assays (depositor defined):AID2097, AID2223, AID489010, AID492950]; assay type: functional
T4 sequence (P9WHJ3 whole entry): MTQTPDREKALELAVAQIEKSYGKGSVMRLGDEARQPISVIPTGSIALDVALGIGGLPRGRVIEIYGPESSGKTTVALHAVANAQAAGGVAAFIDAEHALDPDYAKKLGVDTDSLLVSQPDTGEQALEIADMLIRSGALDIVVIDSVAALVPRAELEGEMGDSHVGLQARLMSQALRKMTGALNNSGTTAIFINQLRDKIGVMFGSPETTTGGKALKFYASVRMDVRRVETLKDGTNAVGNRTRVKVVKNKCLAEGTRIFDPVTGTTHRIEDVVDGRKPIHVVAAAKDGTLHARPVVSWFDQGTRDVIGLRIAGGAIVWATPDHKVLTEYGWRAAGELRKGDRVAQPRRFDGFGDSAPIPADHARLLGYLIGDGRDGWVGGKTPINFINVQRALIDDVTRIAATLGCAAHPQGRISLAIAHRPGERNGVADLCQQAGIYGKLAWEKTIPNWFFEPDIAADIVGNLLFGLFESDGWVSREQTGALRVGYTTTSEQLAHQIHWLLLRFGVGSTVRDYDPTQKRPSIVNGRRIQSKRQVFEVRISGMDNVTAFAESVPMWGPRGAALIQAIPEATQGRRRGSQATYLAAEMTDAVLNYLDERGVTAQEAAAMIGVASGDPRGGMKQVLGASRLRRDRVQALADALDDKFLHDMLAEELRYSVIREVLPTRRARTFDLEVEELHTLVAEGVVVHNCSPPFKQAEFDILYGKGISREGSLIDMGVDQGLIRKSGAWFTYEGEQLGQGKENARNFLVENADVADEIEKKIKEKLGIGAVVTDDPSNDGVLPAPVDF

[9] = THP-1 cell cytotoxicity, dose response, cytotoxicity control for non-replicating M. tuberculosis project (AID 489025); assay type: functional
[10] = MC4R antagonists, dose response, counter-screen for LGR2 antagonist project, cell-based, plate reader, cherry pick (AID 743444); assay type: functional;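 further: transfected HEK 293 cells stimulated with alpha-MSH peptide; potency of inhibitors of the alpha-MSH evoked signal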
[11] = HEK293 cell cytotoxicity, dose response, cytotoxicity control, plate reader, cherry-picked samples (AID 743446); assay type: functional, cell-based
[12] = HepG2 cell cytotoxicity, dose response, cytotoxicity control, plate reader, cherry-pick, antagonist series (AID 743416); assay type: functional, cell-based
[13] = A549 cell cytotoxicity, dose response, cytotoxicity control, plate reader, cherry-pick, antagonist series (AID 743412); assay type: functional, cell-based
cells = assay type: functional
[14] = LGR2 antagonists, dose response, cell-based, HEK293, CRE-luciferase reporter, cherry pick, set 2 (AID 743343); assay type: functional;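 further: transfected cells were stimulated with diluted bursicon conditioned medium after compound addition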
Cytochrome P450 3A4 = Cytochrome P450 3A4 (Homo sapiens, UniProt P08684);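 further: CYP3A4 tested as one member of a cytochrome P450 panel screen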
Sequence of Cytochrome P450 3A4 (P08684 whole entry): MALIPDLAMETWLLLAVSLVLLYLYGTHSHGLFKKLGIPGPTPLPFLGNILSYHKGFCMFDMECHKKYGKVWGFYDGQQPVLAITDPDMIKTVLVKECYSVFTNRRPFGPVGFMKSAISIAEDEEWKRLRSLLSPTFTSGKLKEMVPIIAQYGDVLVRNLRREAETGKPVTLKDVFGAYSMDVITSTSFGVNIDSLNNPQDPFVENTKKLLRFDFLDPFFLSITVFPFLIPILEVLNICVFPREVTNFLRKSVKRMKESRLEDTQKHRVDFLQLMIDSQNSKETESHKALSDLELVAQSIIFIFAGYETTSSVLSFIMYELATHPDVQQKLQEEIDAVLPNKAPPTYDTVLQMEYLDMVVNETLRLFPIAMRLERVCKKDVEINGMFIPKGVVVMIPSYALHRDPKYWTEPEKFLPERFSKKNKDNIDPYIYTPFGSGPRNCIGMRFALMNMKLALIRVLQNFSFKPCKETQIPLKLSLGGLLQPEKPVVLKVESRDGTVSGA

Cytochrome P450 1A2 = target: T5, Cytochrome P450 1A2 (Homo sapiens, UniProt P05177);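 further: PubChem cytochrome P450 panel assay, CYP1A2 panel member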
T5 sequence (P05177 whole entry): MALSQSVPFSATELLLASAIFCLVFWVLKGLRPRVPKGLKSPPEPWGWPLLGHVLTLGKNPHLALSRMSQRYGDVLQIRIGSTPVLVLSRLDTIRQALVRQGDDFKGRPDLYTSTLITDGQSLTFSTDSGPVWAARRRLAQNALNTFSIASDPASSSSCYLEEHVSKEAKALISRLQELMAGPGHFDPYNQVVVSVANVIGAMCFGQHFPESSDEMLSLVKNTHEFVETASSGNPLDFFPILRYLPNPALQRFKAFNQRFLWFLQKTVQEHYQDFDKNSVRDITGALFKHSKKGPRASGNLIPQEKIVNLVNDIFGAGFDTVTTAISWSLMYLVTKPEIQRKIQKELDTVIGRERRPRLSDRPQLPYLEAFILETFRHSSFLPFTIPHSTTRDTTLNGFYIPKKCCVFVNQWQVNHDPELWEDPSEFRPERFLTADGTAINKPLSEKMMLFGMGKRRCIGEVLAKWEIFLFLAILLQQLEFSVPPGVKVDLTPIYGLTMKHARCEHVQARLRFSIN

Cytochrome P450 2C19 = Cytochrome P450 2C19 (Homo sapiens, UniProt P33261); assay: Cytochrome panel assay with activity outcomes. Panel member name: p450-cyp2c19 Compounds with AC50 equal or less than 10 uM are considered active; assay type: functional; conditions: read-out: AC50
Sequence of Cytochrome P450 2C19 (P33261 whole entry): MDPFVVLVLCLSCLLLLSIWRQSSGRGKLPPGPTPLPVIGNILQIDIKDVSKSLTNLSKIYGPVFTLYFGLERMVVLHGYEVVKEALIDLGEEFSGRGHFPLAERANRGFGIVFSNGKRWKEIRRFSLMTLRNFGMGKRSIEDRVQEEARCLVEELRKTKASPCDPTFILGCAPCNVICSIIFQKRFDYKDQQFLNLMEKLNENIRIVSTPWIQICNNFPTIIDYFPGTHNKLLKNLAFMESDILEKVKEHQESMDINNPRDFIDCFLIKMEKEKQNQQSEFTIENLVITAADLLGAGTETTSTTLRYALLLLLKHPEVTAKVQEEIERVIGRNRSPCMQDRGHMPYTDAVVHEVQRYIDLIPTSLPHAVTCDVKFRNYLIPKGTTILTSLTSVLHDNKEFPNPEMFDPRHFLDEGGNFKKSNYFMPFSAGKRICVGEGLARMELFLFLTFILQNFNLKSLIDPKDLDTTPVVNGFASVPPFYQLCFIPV

[15] = cytotoxicity toward Colo320 cells – cell-based, CellTiter-Glo luminescence, IC50, dose response (AID 1117334); assay type: functional; conditions: COLO 320
[16] = cytotoxicity toward HCT116 cells – cell-based, CellTiter-Glo luminescence, IC50, dose response (AID 1117332); assay type: functional; conditions: HCT-116
[17] = CellTiter-Glo luminescent dose response of DLD-1 viability loss (AID 1117352); assay type: functional
[18] = HCT116 cell viability decrease, GSK3B pretreatment – CellTiter-Glo, IC50, dose response (AID 1117339); assay type: functional; conditions: HCT-116
[19] = RKO cell viability reduction, dose response, CellTiter-Glo luminescence (AID 1117322); assay type: functional
[20] = cytotoxicity toward HT-29 cells – cell-based, CellTiter-Glo luminescence, IC50, dose response (AID 1117330); assay type: functional
[21] = SNU-C1 cell viability reduction, dose response, CellTiter-Glo luminescence (AID 1117323); assay type: functional, cell-based
[22] = Concentration-dependent survival of SW480 colon cancer line, luminescence detection with CellTiter-Glo, half-maximal inhibitory concentration (AID 1117338); assay type: functional

O=C1NN(c2ccc(Br)cc2)C(=O)/C1=C\c1ccc(O)cc1O
IC50 [1]: > 100 µM (active) | EC50 [2]: > 38 µM (not active) | IC50 [3]: 159 µM (active) | EC50 [4]: > 150 µM (inconclusive)

CC1CCCN(C(=O)Cn2c(=O)oc3cc(S(=O)(=O)N4CCCCC4)ccc32)C1 (configuration not stated)
EC50 [5]: > 50 µM (active)

COC(=O)c1ccc(CSc2nc(C(F)(F)F)c3c(c2C#N)CCC3)o1
IC50 [1]: > 100 µM (active) | CC50 [6]: > 40 µM (active)

Cc1cc(C)cc(N2CCN(C(=O)N3CCOCC3)CC2)c1
EC50 [7]: > 50 µM (not active)

Nc1cc([N+](=O)[O-])cc2oc(-c3ccccc3)cc12
IC50 [1]: > 100 µM (active)

Cc1ccc(-c2ccc(C3C(C#N)=C(N)Oc4[nH]nc(C)c43)o2)cc1 (configuration not stated)
IC50 [1]: > 100 µM (active) | AC50 [8]: > 380 µM (inactive) | EC50 (Protein RecA): 4.25 µM (active)

O=C(CCS(=O)(=O)c1ccc(Br)cc1)N1CCN(Cc2ccccc2)CC1
EC50 [7]: > 50 µM (not active)

CCOc1ccc(OCCSc2nc3ccccc3[nH]2)cc1
EC50 [5]: > 50 µM (active)

Cc1ccnc(NC(=O)c2cc3ccccc3o2)c1
IC50 [1]: > 50 µM (active) | CC50 [9]: > 40 µM (active) | AC50 [10]: 2.06 µM (active) | AC50 [11]: 52 µM (active) | AC50 [12]: > 52 µM (inactive) | AC50 [13]: 30 µM (active) | IC50 (cells): 19.3 µM (active) | AC50 [14]: 2.27 µM (active) | CC50 [6]: > 40 µM (active)

O=C(CN(Cc1ccco1)C(=O)CNS(=O)(=O)c1ccc(Cl)cc1)NCc1ccc(F)cc1
EC50 [5]: > 50 µM (active)

Cc1ccc(C)c(NC(=O)C2CC(O)CN2C(=O)OC(C)(C)C)c1 (configuration not stated)
AC50 (Cytochrome P450 3A4): 25.1 µM (inconclusive) | EC50 [7]: > 50 µM (not active) | AC50 (Cytochrome P450 1A2): 31.6 µM (inconclusive) | AC50 (Cytochrome P450 2C19): 28.2 µM (inconclusive)

C=CCN(C(=O)Cn1nnc2ccccc21)C(C(=O)NCCOC)c1ccc(OC)cc1OC (configuration not stated)
EC50 [7]: > 50 µM (not active)

Cc1c(Cl)cccc1N(CC(=O)O)S(C)(=O)=O
EC50 [7]: > 50 µM (not active)

Cc1ccc(NC(=O)C(=O)NNC(=O)c2cccs2)cc1
EC50 [5]: > 50 µM (active)

CCC(C(=O)OCCOCCN(CC)CC)c1ccccc1 (configuration not stated) [BUTAMIRATE CITRATE]
IC50 [15]: > 20 µM (inactive) | IC50 [16]: > 20 µM (inactive) | IC50 [17]: > 20 µM (inactive) | IC50 [18]: > 20 µM (inactive) | IC50 [19]: > 20 µM (inactive) | IC50 [20]: > 20 µM (inactive) | IC50 [21]: > 20 µM (inactive) | IC50 [22]: > 20 µM (inactive)

CC(C)Cn1cnc2c1c(=O)n(C)c(=O)n2C [ISBUFYLLINE]
IC50 [15]: > 20 µM (inactive) | IC50 [16]: > 20 µM (inactive) | IC50 [17]: > 20 µM (inactive) | IC50 [18]: > 20 µM (inactive) | IC50 [19]: > 20 µM (inactive) | IC50 [20]: > 20 µM (inactive) | IC50 [21]: > 20 µM (inactive) | IC50 [22]: > 20 µM (inactive)
